These molecules were tested against T1, EGFR (Homo sapiens, UniProt P00533) (assay: EGFR Kinase Assay (GST-EGFR, 33P-ATP, Streptavidin Flashplate)). Settings: GST-EGFR intracellular portion, 5 μM ATP.
T1 construct: started at nucleotide 2189 (corresponding to amino acid 667) and ended at the termination codon; made in house; host or cells: Sf9 insect cells (baculovirus)
Assay type: biochemical
Source text: The EGFR kinase used was a fusion of Glutathione-S-Transferase (GST) and a PCR amplified intracellular portion of EGFR (NM_005228). The intracellular portion of EGFR started at nucleotide 2189 (corresponding to amino acid 667) and ended at the termination codon. The portion was PCR amplified with primers that added the lambda attB sequences to each end, recombined into an entry vector, then into a GST destination vector (as described in Gateway Technologies Manual by Invitrogen Corporation, Carlsbad, Calif.).
The destination vector was recombined in the DH10BAC strain of bacteria to produce a bacmid. The bacmid was transfected into Sf 9 cells and the supernatant containing the baculovirus was collected. The GSTEGFR protein was purified using large cultures of Sf 9 cells infected with stock virus. After an appropriate period of time, the cells were collected and lysed. The GSTEGFR was then purified from the lysate on Glutathione-Sepharose columns (as described by Amersham Biosciences, Buckinghamshire, United Kingdom).
The EGFR substrate was prepared by biotinylating polyGluTyr (128 mg) (Sigma, St. Louis, Mo.) in a 1×PBS buffer incubated together with a 12-fold molar excess of Sulfo-NHS-LC-Biotin on ice for at least 2 hrs. The free biotin was separated from the biotinylated polyGluTyr on a gel filtration column.
A mixture of a 10× kinase buffer (500 mM Tris at pH 8.0, 100 mM Magnesium Chloride and 1 mM Sodium Vanadate), DTT (1 mM final from 500 mM stock), ATP (5 μM final from 10 mM stock), biotinylated polyGluTyr (10 μg/μL stock), γ-^33P ATP (10 μCi/μL stock) and water was added to each well (90 μL/well) of a Streptavidin Flashplate (Perkin Elmer, Wellesley, Mass.).
Test compound in 100% DMSO (2 μL) was added to the appropriate wells. Diluted GSTEGFR (1:300 dilution in 50 mM Tris at pH 8.0 and 0.1% bovine serum albumin) (10 μL) was added to the wells to initiate the reactions.
The plates were incubated at 30° C. for 1 hr with shaking. The reacted contents were removed and the plates were sequentially washed three times with a 1×PBS stop buffer (300 μL without Magnesium and Calcium) and 100 mM EDTA. After the final wash, the same stop buffer (200 μL) was added to the wells. The plates were then sealed and read on the TopCount scintillation counter.
Test compounds were assayed in triplicate at 16 concentrations at half-log dilutions starting at 200 uM. A maximum and minimum signal for the assay was determined on each plate. The percent inhibition of a test compound was calculated accord to the formula
For a series of test concentrations, the IC50 was derived by graphing percent inhibition against the log of the concentrations tested for a given compound. For those compounds without an IC50, the percent inhibition results are shown at a test concentration of 2 μM.

T1 sequence (P00533 667-1210 limits assumed): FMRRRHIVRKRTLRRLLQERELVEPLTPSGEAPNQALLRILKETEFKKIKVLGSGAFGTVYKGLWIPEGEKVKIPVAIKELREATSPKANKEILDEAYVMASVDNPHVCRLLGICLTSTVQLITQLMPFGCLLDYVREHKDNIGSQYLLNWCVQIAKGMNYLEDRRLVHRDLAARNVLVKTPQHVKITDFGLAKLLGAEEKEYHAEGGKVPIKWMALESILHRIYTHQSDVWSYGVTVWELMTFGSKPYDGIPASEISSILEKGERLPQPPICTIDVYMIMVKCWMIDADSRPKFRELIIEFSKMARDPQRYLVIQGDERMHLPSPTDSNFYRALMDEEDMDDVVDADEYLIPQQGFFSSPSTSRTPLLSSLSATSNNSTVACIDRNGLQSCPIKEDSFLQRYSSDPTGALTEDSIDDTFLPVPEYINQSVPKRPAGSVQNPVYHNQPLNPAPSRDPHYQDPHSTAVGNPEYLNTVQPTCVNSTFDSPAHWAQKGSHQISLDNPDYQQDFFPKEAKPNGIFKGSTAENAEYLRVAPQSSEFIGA

In order of falling IC50:
1. N#Cc1cnc2nc(NCCN3CCOCC3)sc2c1Nc1cccc(Cl)c1 [Cpd 12, 7-(3-chloro-phenylamino)-2-(2-morpholin-4-yl-ethylamino)-thiazolo[4,5-b]pyridine-6-carbonitrile]  15800 nM
2. C#Cc1cccc(Nc2c(C#N)cnc3nc(NCCN4CCOCC4)sc23)c1 [Cpd 13, 7-(3-ethynyl-phenylamino)-2-(2-morpholin-4-yl-ethylamino)-thiazolo[4,5-b]pyridine-6-carbonitrile]  3280 nM
3. N#Cc1cnc2nc(NCCCN3CCOCC3)sc2c1Nc1ccc(F)c(Cl)c1 [Cpd 8, 7-(3-chloro-4-fluoro-phenylamino)-2-(3-morpholin-4-yl-propylamino)-thiazolo[4,5-b]pyridine-6-carbonitrile]  2630 nM
4. C#Cc1cccc(Nc2c(C#N)cnc3nc(NCCCN4CCOCC4)sc23)c1 [Cpd 9, 7-(3-ethynyl-phenylamino)-2-(3-morpholin-4-yl-propylamino)-thiazolo[4,5-b]pyridine-6-carbonitrile]  2630 nM
5. N#Cc1cnc2nc(Nc3ccc(CN4CCOCC4)cc3)sc2c1Nc1ccc(Cl)cc1Cl [Cpd 34, 7-(2,4-dichloro-phenylamino)-2-(4-morpholin-4-ylmethyl-phenylamino)-thiazolo[4,5-b]pyridine-6-carbonitrile]  1450 nM
6. N#Cc1cnc2nc(NCc3ccc(CN4CCOCC4)cc3)sc2c1Nc1ccc(F)c(Cl)c1 [Cpd 22, 7-(3-chloro-4-fluoro-phenylamino)-2-(4-morpholin-4-ylmethyl-benzylamino)-thiazolo[4,5-b]pyridine-6-carbonitrile]  853 nM
7. N#Cc1cnc2nc(Nc3ccc(Cl)nc3)sc2c1Nc1ccc(F)c(Cl)c1 [Cpd 28, 7-(3-chloro-4-fluoro-phenylamino)-2-(6-chloro-pyridin-3-ylamino)-thiazolo[4,5-b]pyridine-6-carbonitrile]  327 nM
8. N#Cc1cnc2nc(Nc3ccc(O)nc3)sc2c1Nc1ccc(F)c(Cl)c1 [Cpd 27, 7-(3-chloro-4-fluoro-phenylamino)-2-(6-hydroxy-pyridin-3-ylamino)-thiazolo[4,5-b]pyridine-6-carbonitrile]  207 nM
9. COc1ccc(Nc2nc3ncc(C#N)c(Nc4ccc(F)c(Cl)c4)c3s2)cn1 [Cpd 26, 7-(3-chloro-4-fluoro-phenylamino)-2-(6-methoxy-pyridin-3-ylamino)-thiazolo[4,5-b]pyridine-6-carbonitrile]  158 nM
10. CN(C)Cc1ccc(Nc2nc3ncc(C#N)c(Nc4ccc(F)c(Cl)c4)c3s2)cc1Cl [Cpd 18, 2-(3-chloro-4-dimethylaminomethyl-phenylamino)-7-(3-chloro-4-fluoro-phenylamino)-thiazolo[4,5-b]pyridine-6-carbonitrile]  85.7 nM
11. N#Cc1cnc2nc(Nc3ccc(CN4CCOCC4)cc3)sc2c1Nc1cccc(Cl)c1 [Cpd 19, 7-(3-chloro-phenylamino)-2-(4-morpholin-4-ylmethyl-phenylamino)-thiazolo[4,5-b]pyridine-6-carbonitrile]  79.5 nM
12. N#Cc1cnc2nc(Nc3ccc(CN4CCOCC4)cc3)sc2c1Nc1ccc(F)c(Cl)c1 [Cpd 2, 7-(3-chloro-4-fluoro-phenylamino)-2-(4-morpholin-4-ylmethyl-phenylamino)-thiazolo[4,5-b]pyridine-6-carbonitrile]  78 nM
13. CN(Cc1ccc(Nc2nc3ncc(C#N)c(Nc4ccc(F)c(Cl)c4)c3s2)cc1)C1CCOCC1 [Cpd 16, 7-(3-chloro-4-fluoro-phenylamino)-2-(4-{[methyl-(tetrahydro-pyran-4-yl)-amino]-methyl}-phenylamino)-thiazolo[4,5-b]pyridine-6-carbonitrile]  76.4 nM
14. CN(Cc1ccc(Nc2nc3ncc(C#N)c(Nc4ccc(F)c(Cl)c4)c3s2)cc1)C[C@@H]1CCCO1 [Cpd 15, 7-(3-chloro-4-fluoro-phenylamino)-2-[(4-{methyl-[(2S)-tetrahydro-furan-2-ylmethyl]-amino}-methyl)-phenylamino]-thiazolo[4,5-b]pyridine-6-carbonitrile]  76.1 nM
15. N#Cc1cnc2nc(Nc3ccc(NCCCN4CCOCC4)nc3)sc2c1Nc1ccc(F)c(Cl)c1 [Cpd 29, 7-(3-chloro-4-fluoro-phenylamino)-2-[6-(3-morpholin-4-yl-propylamino)-pyridin-3-ylamino]-thiazolo[4,5-b]pyridine-6-carbonitrile]  69.6 nM
16. N#Cc1cnc2nc(Nc3ccc(NCCN)nc3)sc2c1Nc1ccc(F)c(Cl)c1 [Cpd 30, 2-[6-(2-amino-ethylamino)-pyridin-3-ylamino]-7-(3-chloro-4-fluoro-phenylamino)-thiazolo[4,5-b]pyridine-6-carbonitrile]  67.7 nM
17. COCCN(CCOC)S(=O)(=O)c1ccc(Nc2nc3ncc(C#N)c(Nc4ccc(F)c(Cl)c4)c3s2)cc1 [Cpd 5, 4-[7-(3-chloro-4-fluoro-phenylamino)-6-cyano-thiazolo[4,5-b]pyridin-2-ylamino]-N,N-bis-(2-methoxy-ethyl)-benzenesulfonamide]  63.7 nM
18. N#Cc1cnc2nc(Nc3ccc(CN4CCC(N)CC4)cc3)sc2c1Nc1ccc(F)c(Cl)c1 [Cpd 31, 2-[4-(4-amino-piperidin-1-ylmethyl)-phenylamino]-7-(3-chloro-4-fluoro-phenylamino)-thiazolo[4,5-b]pyridine-6-carbonitrile]  60.4 nM
19. N#Cc1cnc2nc(Nc3ccc(CN4CCC[C@H]4CO)cc3)sc2c1Nc1ccc(F)c(Cl)c1 [Cpd 6, 7-(3-chloro-4-fluoro-phenylamino)-2-{4-[(2S)-2-hydroxymethyl-pyrrolidin-1-ylmethyl]-phenylamino}-thiazolo[4,5-b]pyridine-6-carbonitrile]  53 nM
20. COCCN(CCOC)Cc1ccc(Nc2nc3ncc(C#N)c(Nc4ccc(F)c(Cl)c4)c3s2)cc1 [Cpd 4, 2-(4-{[bis-(2-methoxy-ethyl)-amino]-methyl}-phenylamino)-7-(3-chloro-4-fluoro-phenylamino)-thiazolo[4,5-b]pyridine-6-carbonitrile]  49 nM
21. N#Cc1cnc2nc(Nc3ccc(CNC[C@H]4CCCO4)cc3)sc2c1Nc1ccc(F)c(Cl)c1 [Cpd 21, 7-(3-chloro-4-fluoro-phenylamino)-2-[4-({[(2R)-tetrahydro-furan-2-ylmethyl]-amino}-methyl)-phenylamino]-thiazolo[4,5-b]pyridine-6-carbonitrile]  44.6 nM
22. CN(C)Cc1ccc(Nc2nc3ncc(C#N)c(Nc4ccc(F)c(Cl)c4)c3s2)cc1 [Cpd 3, 7-(3-chloro-4-fluoro-phenylamino)-2-(4-dimethylaminomethyl-phenylamino)-thiazolo[4,5-b]pyridine-6-carbonitrile]  43.7 nM
23. C#Cc1cccc(Nc2c(C#N)cnc3nc(Nc4ccc(CN5CCC[C@H]5CO)cc4)sc23)c1 [Cpd 11, 7-(3-ethynyl-phenylamino)-2-{4-[(2S)2-hydroxymethyl-pyrrolidin-1-ylmethyl]-phenylamino}-thiazolo[4,5-b]pyridine-6-carbonitrile]  41.7 nM
24. CN(Cc1ccc(Nc2nc3ncc(C#N)c(Nc4ccc(F)c(Cl)c4)c3s2)cc1)C[C@H]1CCCO1 [Cpd 14, 7-(3-chloro-4-fluoro-phenylamino)-2-[(4-{methyl-[(2R)-tetrahydro-furan-2-ylmethyl]-amino}-methyl)-phenylamino]-thiazolo[4,5-b]pyridine-6-carbonitrile]  29.3 nM
25. N#Cc1cnc2nc(Nc3ccc(S(=O)(=O)NCCN4CCOCC4)cc3)sc2c1Nc1ccc(F)c(Cl)c1 [Cpd 7, 4-[7-(3-chloro-4-fluoro-phenylamino)-6-cyano-thiazolo[4,5-b]pyridin-2-ylamino]-N-(2-morpholin-4-yl-ethyl)-benzenesulfonamide]  28.5 nM
26. CCc1nccn1Cc1ccc(Nc2nc3ncc(C#N)c(Nc4ccc(F)c(Cl)c4)c3s2)cc1 [Cpd 1, 7-(3-chloro-4-fluoro-phenylamino)-2-[4-(2-ethyl-imidazol-1-ylmethyl)-phenylamino]-thiazolo[4,5-b]pyridine-6-carbonitrile]  22.6 nM

Source: patent publication US7659284B2, “Thiazolopyridine kinase inhibitors” (Janssen Pharmaceutica NV, priority 2004, dated 2010)
